Square brackets hold non-standard residues; d marks the D form. Peptide text beside a SMILES is read from it. * marks the point of attachment. pNA = O=[N+]([O-])c1ccc(N*)cc1
Tests used:
[1] = biological target: Trypsin (Homo sapiens, UniProt P07477+P07478+P35030); assay: Inhibition of trypsin (unknown origin) using H-D-Phe-Pip-Arg-pNA as substrate; type: protein assay
[2] = biological target: Urokinase-type plasminogen activator (Homo sapiens, UniProt P00749); assay: Inhibition of urokinase (unknown origin) using Pyr-Glu-Gly-Arg-pNA as substrate; conditions: for inhibition: concentration not given here
[3] = biological target: T1, Plasminogen (Homo sapiens, UniProt P00747); assay: Inhibition of plasmin (unknown origin) using H-D-Val-Leu-Lys-pNA as substrate
T1 sequence (P00747 97-580 limits assumed): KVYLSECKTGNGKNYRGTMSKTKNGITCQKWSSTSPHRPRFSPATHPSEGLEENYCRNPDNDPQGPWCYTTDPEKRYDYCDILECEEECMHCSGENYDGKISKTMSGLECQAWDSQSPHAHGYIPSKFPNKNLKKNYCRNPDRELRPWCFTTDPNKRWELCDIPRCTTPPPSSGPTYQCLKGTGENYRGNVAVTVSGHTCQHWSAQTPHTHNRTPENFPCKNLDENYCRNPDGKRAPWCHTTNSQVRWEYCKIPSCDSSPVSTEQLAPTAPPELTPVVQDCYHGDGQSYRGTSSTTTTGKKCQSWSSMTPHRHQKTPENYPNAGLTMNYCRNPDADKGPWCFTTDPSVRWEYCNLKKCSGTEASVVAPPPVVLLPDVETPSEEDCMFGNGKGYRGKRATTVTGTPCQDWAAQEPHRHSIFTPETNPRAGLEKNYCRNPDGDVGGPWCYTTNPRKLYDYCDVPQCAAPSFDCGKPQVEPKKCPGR
T1 sequence (P00747 581-810 limits assumed): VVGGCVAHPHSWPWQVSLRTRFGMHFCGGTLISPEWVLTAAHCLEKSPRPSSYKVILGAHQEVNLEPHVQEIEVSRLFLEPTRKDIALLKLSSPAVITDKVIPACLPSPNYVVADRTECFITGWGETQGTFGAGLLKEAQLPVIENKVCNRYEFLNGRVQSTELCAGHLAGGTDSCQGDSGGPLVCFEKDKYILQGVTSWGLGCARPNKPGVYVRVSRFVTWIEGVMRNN

[4] = biological target: T1, Plasminogen; assay: Inhibition of plasmin (unknown origin)
[5] = biological target: T1, Plasminogen; assay: Inhibition of human plasmin assessed as inhibition of amidolysis in presence of fibrinogen
[6] = biological target: T1, Plasminogen; assay: Inhibition of human plasmin assessed as inhibition of fibrinolysis in presence of fibrinogen
[7] = biological target: T1, Plasminogen; assay: Inhibition of human plasmin assessed as inhibition of fibrinogenolysis in presence of fibrinogen
[8] = biological target: T1, Plasminogen; assay: Inhibition of human plasmin

| SMILES | IC50 [1] | IC50 [2] | inhibition [2] | IC50 [3] | IC50 [4] | Ki [5] | IC50 [6] | IC50 [7] | IC50 [8] |
| --- | --- | --- | --- | --- | --- | --- | --- | --- | --- |
| CCCCCCCCNC(=O)[C@H](Cc1ccc(OCc2ccc(C(=O)O)cc2)cc1)NC(=O)[C@H]1CC[C@H](CN)CC1 | 4.7 µM | > 100 µM | 22% | 2.7 µM | – | – | – | – | – |
| CCCCCCCCNC(=O)[C@H](Cc1ccc(OCc2ccc3ccccc3n2)cc1)NC(=O)[C@H]1CC[C@H](CN)CC1 | 1.4 µM | 77 µM | – | 0.22 µM | – | – | – | – | – |
| CCCCCCCCNC(=O)[C@H](Cc1ccc(OC(C)(C)C)cc1)NC(=O)[C@H]1CC[C@H](CN)CC1 | 0.38 µM | > 100 µM | 17% | 17 µM | – | – | – | – | – |
| CCCCCCCCNC(=O)[C@H](Cc1ccc(OCc2cccc(C(F)(F)F)c2)cc1)NC(=O)[C@H]1CC[C@H](CN)CC1 | 2.5 µM | > 100 µM | 12% | 0.6 µM | – | – | – | – | – |
| CCCCCCCCNC(=O)[C@H](Cc1ccc(O)cc1)NC(=O)[C@H]1CC[C@H](CN)CC1 | 1 µM | 62 µM | – | 67 µM | – | – | – | – | – |
| CC[C@@H](C)[C@@H](N)C(=O)N[C@@H](Cc1ccc(OCc2cccc(OCc3ccncc3)c2)cc1)C(=O)N[C@H](C#N)CCCCN | – | – | – | – | 7.7 µM | – | – | – | – |
| CCCCCCCCNC(=O)[C@H](Cc1ccc(OCc2ccc(C(=O)OCC)cc2)cc1)NC(=O)[C@H]1CC[C@H](CN)CC1 | 6.1 µM | > 200 µM | 40% | 0.49 µM | – | – | – | – | – |
| CCCCCCNC(=O)[C@H](Cc1ccc(OCc2cccnc2)cc1)NC(=O)c1ccc(CN)cc1 | – | – | – | – | – | 2.9 µM | 2.9 µM | 4.5 µM | – |
| CCCCCCCCNC(=O)[C@H](Cc1ccc(OCc2ccc(C(F)(F)F)cc2)cc1)NC(=O)[C@H]1CC[C@H](CN)CC1 | 6.9 µM | > 100 µM | 6% | 0.96 µM | – | – | – | – | – |
| CCCCCCCCNC(=O)[C@H](Cc1ccc(OCc2ccncc2)cc1)NC(=O)[C@H]1CC[C@H](CN)CC1 | 1.1 µM | 5.3 µM | – | 0.53 µM | – | – | – | – | – |
| CC[C@@H](C)[C@@H](N)C(=O)N[C@@H](Cc1ccc(OCc2ccncc2)cc1)C(=O)N[C@H](C#N)CCCCN | – | – | – | – | 11 µM | – | – | – | – |
| CCCCCCCCNC(=O)[C@H](Cc1ccc(OCc2cccc(C(=O)OCC)c2)cc1)NC(=O)[C@H]1CC[C@H](CN)CC1 | 2.7 µM | > 50 µM | 7% | 0.51 µM | – | – | – | – | – |
| CCCCCCCCNC(=O)[C@H](Cc1ccc(OCc2cccc(-c3ccccc3)c2)cc1)NC(=O)[C@H]1CC[C@H](CN)CC1 | 6.7 µM | > 100 µM | 41% | 0.75 µM | – | – | – | – | – |
| CCCCCCCCNC(=O)[C@H](Cc1ccc(OCc2cccc(N)c2)cc1)NC(=O)[C@H]1CC[C@H](CN)CC1 | 0.86 µM | > 100 µM | 31% | 0.86 µM | – | – | – | – | – |

More lines, now with the values ahead:

| IC50 [1] | IC50 [2] | inhibition [2] | IC50 [3] | IC50 [4] | Ki [5] | IC50 [6] | IC50 [7] | IC50 [8] | SMILES |
| --- | --- | --- | --- | --- | --- | --- | --- | --- | --- |
| 4.8 µM | > 200 µM | 23% | 1.5 µM | – | – | – | – | – | CCCCCCCCNC(=O)[C@H](Cc1ccc(OCc2ccccc2C(=O)OC)cc1)NC(=O)[C@H]1CC[C@H](CN)CC1 |
| 2.1 µM | > 100 µM | 13% | 0.68 µM | – | – | – | – | – | CCCCCCCCNC(=O)[C@H](Cc1ccc(OCc2cccc([N+](=O)[O-])c2)cc1)NC(=O)[C@H]1CC[C@H](CN)CC1 |
| 4.6 µM | > 100 µM | 5% | 3 µM | – | – | – | – | – | CCCCCCCCNC(=O)[C@H](Cc1ccc(OCc2ccccc2C(F)(F)F)cc1)NC(=O)[C@H]1CC[C@H](CN)CC1 |
| 2.2 µM | > 100 µM | 0% | 1.7 µM | – | – | – | – | – | CCCCCCCCNC(=O)[C@H](Cc1ccc(OCc2ccccc2)cc1)NC(=O)[C@H]1CC[C@H](CN)CC1 |
| – | – | – | – | – | – | – | – | 0.53 µM | CC(C)C[C@H](NC(=O)[C@H](N)C(C)C)C(=O)N[C@@H](CCCCN)C(=O)Nc1ccc([N+](=O)[O-])cc1 (H-[dV]-Leu-Lys-pNA) |
| 1.3 µM | > 50 µM | 36% | 0.97 µM | – | – | – | – | – | CCCCCCCCNC(=O)[C@H](Cc1ccc(OCc2cccc(OCc3ccncc3)c2)cc1)NC(=O)[C@H]1CC[C@H](CN)CC1 |
| 2.7 µM | > 100 µM | 10% | 1.6 µM | – | – | – | – | – | CCCCCCCCNC(=O)[C@H](Cc1ccc(OCc2cccc3ccccc23)cc1)NC(=O)[C@H]1CC[C@H](CN)CC1 |
| 2 µM | > 50 µM | 13% | 0.53 µM | – | – | – | – | – | CCCCCCCCNC(=O)[C@H](Cc1ccc(OCc2cccc(C(=O)O)c2)cc1)NC(=O)[C@H]1CC[C@H](CN)CC1 |
| 0.93 µM | > 100 µM | 24% | 0.34 µM | – | – | – | – | – | CCCCCCCCNC(=O)[C@H](Cc1ccc(OCc2cccc3cccnc23)cc1)NC(=O)[C@H]1CC[C@H](CN)CC1 |
| 4.4 µM | > 100 µM | 23% | 0.71 µM | – | – | – | – | – | CCCCCCCCNC(=O)[C@H](Cc1ccc(OCc2ccc3ccccc3c2)cc1)NC(=O)[C@H]1CC[C@H](CN)CC1 |
